Legend:
[1] = biological target: 5-hydroxytryptamine receptor 4 (Cavia porcellus, UniProt O70528); format: cell membranes, Dunkin-Hartley, Striatum, Membrane; also: in other assays of this panel Not Active means under 50% inhibition at 10 µM
[2] = biological target: cGMP-specific 3',5'-cyclic phosphodiesterase (Homo sapiens, UniProt O76074); assay: DRUGMATRIX: Phosphodiesterase PDE5 enzyme inhibition (substrate: [3H]cGMP + cGMP); format: tissue-based, Platelet; details: platelet; Not Active = under 50% inhibition at 10 µM
[3] = DRUGMATRIX: Purinergic P2X radioligand binding (ligand: [3H] alpha, beta-Methylene-ATP); format: cell membranes, Oryctolagus cuniculus, New Zealand albino, Urinary bladder, Membrane; details: Not Active = under 50% inhibition at 10 µM
Cytochrome P450 2D6 = Cytochrome P450 2D6 (Homo sapiens, UniProt P10635); details: bti-tn-5b1-4; also: in other assays of this panel Not Active means under 50% inhibition at 10 µM
Cannabinoid receptor 1 = Cannabinoid receptor 1 (Homo sapiens, UniProt P21554); format: cell membranes, Chem-1, Membrane; details: chem-1; also: in other assays of this panel Not Active means under 50% inhibition at 10 µM
[4] = biological target: T1, Angiotensin-converting enzyme (Oryctolagus cuniculus, UniProt P12822); format: tissue-based, Lung;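 also: enzymatic inhibition of angiotensin-converting enzyme measured with FAPGG as the substrate; in other assays of this panel Not Active means under 50% inhibition at 10 µM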
T1 sequence (P12822 whole entry): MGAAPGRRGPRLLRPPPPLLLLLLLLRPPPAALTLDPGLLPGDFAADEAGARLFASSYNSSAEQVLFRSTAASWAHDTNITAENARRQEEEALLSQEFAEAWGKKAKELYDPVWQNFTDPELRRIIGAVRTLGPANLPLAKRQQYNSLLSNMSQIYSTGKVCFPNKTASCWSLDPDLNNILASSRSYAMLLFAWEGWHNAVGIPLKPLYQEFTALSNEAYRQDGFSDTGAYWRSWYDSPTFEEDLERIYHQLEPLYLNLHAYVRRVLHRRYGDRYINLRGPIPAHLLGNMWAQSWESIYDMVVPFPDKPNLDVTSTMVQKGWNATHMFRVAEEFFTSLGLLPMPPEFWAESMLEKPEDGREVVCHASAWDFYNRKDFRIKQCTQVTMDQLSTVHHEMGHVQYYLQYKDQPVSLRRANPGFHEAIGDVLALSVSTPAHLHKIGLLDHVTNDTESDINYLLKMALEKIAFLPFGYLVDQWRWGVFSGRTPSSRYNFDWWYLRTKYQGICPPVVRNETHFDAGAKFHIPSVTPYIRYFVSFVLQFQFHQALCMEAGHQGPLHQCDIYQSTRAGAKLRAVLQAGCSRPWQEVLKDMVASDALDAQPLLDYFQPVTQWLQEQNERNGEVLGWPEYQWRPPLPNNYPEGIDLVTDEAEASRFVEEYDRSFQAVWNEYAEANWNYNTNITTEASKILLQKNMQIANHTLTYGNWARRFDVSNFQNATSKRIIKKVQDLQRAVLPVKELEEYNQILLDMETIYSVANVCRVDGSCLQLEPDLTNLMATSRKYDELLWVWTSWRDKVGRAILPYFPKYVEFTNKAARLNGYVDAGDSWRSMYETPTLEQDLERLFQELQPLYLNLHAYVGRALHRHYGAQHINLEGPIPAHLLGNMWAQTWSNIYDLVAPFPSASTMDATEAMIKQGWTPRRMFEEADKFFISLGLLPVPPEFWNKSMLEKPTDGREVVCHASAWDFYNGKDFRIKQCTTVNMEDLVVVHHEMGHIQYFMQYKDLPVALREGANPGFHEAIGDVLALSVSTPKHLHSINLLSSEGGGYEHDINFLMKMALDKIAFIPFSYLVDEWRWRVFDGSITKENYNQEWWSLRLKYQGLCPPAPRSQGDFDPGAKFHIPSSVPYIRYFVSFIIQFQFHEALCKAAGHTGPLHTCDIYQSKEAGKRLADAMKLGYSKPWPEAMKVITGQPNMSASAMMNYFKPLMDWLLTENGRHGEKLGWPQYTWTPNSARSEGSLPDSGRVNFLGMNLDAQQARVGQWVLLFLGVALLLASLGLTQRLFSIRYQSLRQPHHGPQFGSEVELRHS

Interstitial collagenase = biological target: T2, Interstitial collagenase (Homo sapiens, UniProt P03956); assay: biochemical; format: tissue-based, Rheumatoid synovial fibroblasts
T2 sequence (P03956 whole entry): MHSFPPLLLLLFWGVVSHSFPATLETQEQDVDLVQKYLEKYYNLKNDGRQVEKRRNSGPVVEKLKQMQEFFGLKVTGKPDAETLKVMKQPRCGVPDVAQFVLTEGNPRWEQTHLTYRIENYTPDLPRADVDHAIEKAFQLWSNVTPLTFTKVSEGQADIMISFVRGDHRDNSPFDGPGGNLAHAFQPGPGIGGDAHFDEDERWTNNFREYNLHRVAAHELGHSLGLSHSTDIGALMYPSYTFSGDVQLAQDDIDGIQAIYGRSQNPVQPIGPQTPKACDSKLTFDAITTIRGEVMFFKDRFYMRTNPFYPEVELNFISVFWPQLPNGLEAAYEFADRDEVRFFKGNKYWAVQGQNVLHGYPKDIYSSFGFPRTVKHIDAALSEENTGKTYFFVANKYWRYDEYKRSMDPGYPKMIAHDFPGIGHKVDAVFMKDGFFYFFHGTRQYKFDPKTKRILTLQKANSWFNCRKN

Caspase-1 = biological target: T3, Caspase-1 (Homo sapiens, UniProt P29466); set-up: species or system Escherichia coli
T3 sequence (P29466 whole entry): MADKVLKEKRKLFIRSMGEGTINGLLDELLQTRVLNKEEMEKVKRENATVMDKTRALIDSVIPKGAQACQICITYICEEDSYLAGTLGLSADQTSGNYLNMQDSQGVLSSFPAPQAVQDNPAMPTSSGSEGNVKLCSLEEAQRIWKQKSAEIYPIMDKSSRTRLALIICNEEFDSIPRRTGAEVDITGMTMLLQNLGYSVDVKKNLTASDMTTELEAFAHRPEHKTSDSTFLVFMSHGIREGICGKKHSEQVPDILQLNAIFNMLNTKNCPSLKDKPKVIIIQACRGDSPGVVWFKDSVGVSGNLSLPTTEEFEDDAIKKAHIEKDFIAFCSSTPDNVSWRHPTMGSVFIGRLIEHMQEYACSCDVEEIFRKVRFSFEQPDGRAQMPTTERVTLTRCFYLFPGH

Estrogen receptor beta = Estrogen receptor beta (Homo sapiens, UniProt Q92731); details: sf9; also: in other assays of this panel Not Active means under 50% inhibition at 10 µM
Estrogen receptor beta, sequence (Q92731 whole entry): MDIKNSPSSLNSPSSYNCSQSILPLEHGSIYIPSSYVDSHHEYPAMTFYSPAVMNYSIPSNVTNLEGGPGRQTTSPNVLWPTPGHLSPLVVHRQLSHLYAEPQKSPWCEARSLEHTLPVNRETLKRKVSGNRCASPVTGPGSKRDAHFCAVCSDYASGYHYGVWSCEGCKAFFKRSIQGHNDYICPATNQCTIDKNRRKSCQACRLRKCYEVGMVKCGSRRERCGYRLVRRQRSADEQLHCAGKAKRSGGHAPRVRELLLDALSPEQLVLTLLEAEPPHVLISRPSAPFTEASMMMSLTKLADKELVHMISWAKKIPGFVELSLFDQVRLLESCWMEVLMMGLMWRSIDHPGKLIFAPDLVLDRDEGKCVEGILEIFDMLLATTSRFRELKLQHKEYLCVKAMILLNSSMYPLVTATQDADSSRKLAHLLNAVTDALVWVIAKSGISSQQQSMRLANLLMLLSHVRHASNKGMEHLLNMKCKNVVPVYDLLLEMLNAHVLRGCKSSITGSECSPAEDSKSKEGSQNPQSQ

Cannabinoid receptor 1, sequence (P21554 whole entry): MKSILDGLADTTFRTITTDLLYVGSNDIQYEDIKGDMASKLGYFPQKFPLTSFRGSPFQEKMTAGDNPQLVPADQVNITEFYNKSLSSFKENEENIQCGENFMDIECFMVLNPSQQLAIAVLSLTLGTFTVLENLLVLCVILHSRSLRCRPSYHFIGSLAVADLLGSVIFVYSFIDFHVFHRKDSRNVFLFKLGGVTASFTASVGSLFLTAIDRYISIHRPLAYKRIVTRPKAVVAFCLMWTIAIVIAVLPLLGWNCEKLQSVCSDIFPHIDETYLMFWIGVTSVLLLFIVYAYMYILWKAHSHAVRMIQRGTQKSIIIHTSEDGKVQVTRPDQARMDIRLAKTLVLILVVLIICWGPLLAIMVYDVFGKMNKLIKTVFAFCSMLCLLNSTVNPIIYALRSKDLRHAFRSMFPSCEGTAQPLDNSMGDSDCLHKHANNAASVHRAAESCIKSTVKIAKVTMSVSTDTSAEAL
5-hydroxytryptamine receptor 4, sequence (O70528 whole entry): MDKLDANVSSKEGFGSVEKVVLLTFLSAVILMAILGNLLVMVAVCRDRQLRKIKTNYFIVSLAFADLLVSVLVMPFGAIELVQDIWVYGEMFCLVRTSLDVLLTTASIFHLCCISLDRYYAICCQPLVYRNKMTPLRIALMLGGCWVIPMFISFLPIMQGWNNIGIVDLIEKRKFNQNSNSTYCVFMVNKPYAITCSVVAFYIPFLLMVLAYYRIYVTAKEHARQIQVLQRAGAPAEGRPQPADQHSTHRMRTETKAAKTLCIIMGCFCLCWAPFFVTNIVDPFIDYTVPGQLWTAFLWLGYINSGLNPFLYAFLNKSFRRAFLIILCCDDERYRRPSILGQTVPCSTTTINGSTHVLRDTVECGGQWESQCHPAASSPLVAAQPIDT
Cytochrome P450 2D6, sequence (P10635 whole entry): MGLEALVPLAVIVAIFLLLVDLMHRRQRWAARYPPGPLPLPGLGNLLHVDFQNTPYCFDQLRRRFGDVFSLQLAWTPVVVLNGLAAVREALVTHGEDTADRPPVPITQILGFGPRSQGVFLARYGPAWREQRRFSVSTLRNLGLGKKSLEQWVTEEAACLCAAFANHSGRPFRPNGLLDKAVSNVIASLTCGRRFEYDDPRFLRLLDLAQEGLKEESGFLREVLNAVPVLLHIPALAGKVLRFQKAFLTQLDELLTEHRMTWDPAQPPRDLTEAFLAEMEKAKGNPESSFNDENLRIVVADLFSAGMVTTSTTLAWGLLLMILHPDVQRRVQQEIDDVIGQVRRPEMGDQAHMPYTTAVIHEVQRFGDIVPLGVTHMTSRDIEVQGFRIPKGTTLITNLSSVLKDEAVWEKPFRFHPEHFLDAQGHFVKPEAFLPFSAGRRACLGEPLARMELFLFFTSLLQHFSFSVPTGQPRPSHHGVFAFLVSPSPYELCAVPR

NC1CCN(c2nc3c(cc2F)c(=O)c(C(=O)O)cn3-c2ccc(F)cc2F)C1 (centres undefined) [TOSUFLOXACIN]
Not Active: IC50 [1] | IC50 [2] | IC50 [3] | Ki [3] | IC50 (Cytochrome P450 2D6) | Ki (Cytochrome P450 2D6) | IC50 (Cannabinoid receptor 1) | IC50 [4] | IC50 (Interstitial collagenase) | IC50 (Caspase-1) | IC50 (Estrogen receptor beta)

O=C(Nc1ccc(Br)cc1)c1cc(Br)cc(Br)c1O [TRIBROMSALAN]
Not Active: IC50 [1] | IC50 [2] | IC50 [3] | Ki [3] | IC50 (Cytochrome P450 2D6) | Ki (Cytochrome P450 2D6) | IC50 (Cannabinoid receptor 1) | IC50 [4] | IC50 (Interstitial collagenase) | IC50 (Caspase-1) | IC50 (Estrogen receptor beta)

CC(c1cc2ccccc2s1)N(O)C(N)=O (centres undefined) [ZILEUTON]
Not Active: IC50 [1] | IC50 [2] | IC50 [3] | Ki [3] | IC50 (Cytochrome P450 2D6) | Ki (Cytochrome P450 2D6) | IC50 (Cannabinoid receptor 1) | IC50 [4] | IC50 (Interstitial collagenase) | IC50 (Caspase-1) | IC50 (Estrogen receptor beta)

MANGANESE CHLORIDE ANHYDROUS
Not Active: IC50 [1] | Ki [1] | IC50 [2] | Ki [2] | IC50 [3] | Ki [3] | IC50 (Cytochrome P450 2D6) | Ki (Cytochrome P450 2D6) | IC50 (Cannabinoid receptor 1) | Ki (Cannabinoid receptor 1) | IC50 [4] | Ki [4] | IC50 (Interstitial collagenase) | Ki (Interstitial collagenase) | IC50 (Caspase-1) | Ki (Caspase-1) | IC50 (Estrogen receptor beta) | Ki (Estrogen receptor beta)

SODIUM ORTHOVANAD
Not Active: IC50 [1] | Ki [1] | IC50 [2] | Ki [2] | IC50 [3] | Ki [3] | IC50 (Cytochrome P450 2D6) | Ki (Cytochrome P450 2D6) | IC50 (Cannabinoid receptor 1) | Ki (Cannabinoid receptor 1) | IC50 [4] | Ki [4] | IC50 (Interstitial collagenase) | Ki (Interstitial collagenase) | IC50 (Caspase-1) | Ki (Caspase-1) | IC50 (Estrogen receptor beta) | Ki (Estrogen receptor beta)

Source: ChEMBL document CHEMBL1909046, “DrugMatrix in vitro pharmacology data”
